Results taken from patent US8889674B2, “Piperidine and pyrrolidine derivatives having NPY Y5 receptor antagonism” (Shionogi & Co., Ltd., priority 2009, dated 2014).

Each compound was assayed against T1, mouse NPY Y5 receptor (Mus musculus, UniProt O70342) (assay: Affinity for NPY Y5 receptor: 125I peptide YY binding to membranes of CHO cells expressing mouse NPY Y5 receptor). Settings: mouse NPY Y5 receptor in CHO cell membranes, 125I peptide YY 60 pM, 25° C., 2 hours.
T1 construct: expressed in transfected cells
T1 sequence (O70342 1-466): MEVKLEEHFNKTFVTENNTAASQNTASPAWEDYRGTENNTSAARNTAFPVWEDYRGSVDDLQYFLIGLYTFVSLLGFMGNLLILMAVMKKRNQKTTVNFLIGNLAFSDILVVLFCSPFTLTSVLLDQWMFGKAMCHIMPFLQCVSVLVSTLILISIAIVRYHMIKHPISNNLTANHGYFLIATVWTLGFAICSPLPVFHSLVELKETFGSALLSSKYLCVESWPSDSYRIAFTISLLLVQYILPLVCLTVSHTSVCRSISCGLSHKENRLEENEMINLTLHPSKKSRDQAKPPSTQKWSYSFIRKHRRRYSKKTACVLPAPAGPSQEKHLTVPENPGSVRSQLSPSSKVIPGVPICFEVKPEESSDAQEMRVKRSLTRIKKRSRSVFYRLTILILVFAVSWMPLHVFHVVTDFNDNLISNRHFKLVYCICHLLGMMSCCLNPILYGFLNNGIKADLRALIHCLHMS
Description: cDNA sequence encoding mouse NPY Y5 receptor (Biochem. Biophys. Acta 1328: 83-89, 1997) was cloned in the expression vector (pME18S, Takebe et al. Mol. Cell. Biol. 8, 466-472). The obtained expression vector was transfected into CHO cells as a host according to the instruction manual using Lipofectamine reagent (Trademark, Gibco BRL Co., Ltd.). The cells that stably express NPY Y5 receptor were obtained.
The membrane samples prepared from the CHO cells expressing NPY Y5 receptor, the compound of the invention and 30,000 cpm ^125I peptide YY (60 pM of final concentration: Amersham) were incubated in the assay buffer (20 mM HEPES-Hanks buffer containing 0.1% bovine serum albumin, pH 7.4) at 25° C. for 2 hours. The membrane samples were then filtered from the mixture through a glassfilter (GF/C) presoaked with 1% polyethyleneimine. After washing with 50 mM Tris-HCl buffer (pH 7.4), radioactivity retained on the filters was determined using gamma counter. Non-specific binding was determined in the presence of 200 nM of peptide YY and calculated the 50% inhibitory concentration (IC50 value) of the test compound for specific peptide YY binding (Inui, A. et al. Endocrinology 131, 2090-2096 (1992)).

| Structure (SMILES) | IC50 [nM] |
| --- | --- |
| CC(=O)N1CCC[C@@H]1C(=O)N1CCC(C(=O)Nc2cccc(-c3ccccc3F)c2)CC1 [Ia-4] | 0.47 |
| CC(=O)N1CCC[C@@H]1C(=O)N1CCC(c2nc3ccc(-c4ccccc4F)cc3[nH]2)CC1 [Ia-5] | 0.28 |
| C[C@@H]1CC(F)(F)CN1C(=O)N1CCC(C(=O)Nc2cccc(-c3ccccc3F)c2)CC1 [Ia-18] | 1.56 |
| O=C(Nc1ccc(OC(F)F)cc1)C1CCN(C(=O)Cn2c(-c3ccccc3)noc2=O)CC1 [Ia-19] | 0.29 |
| CC(C)c1noc(=O)n1CC(=O)N1CCC(C(=O)Nc2cccc(-c3ccccc3F)c2)CC1 [Ia-22] | 0.22 |
| O=C(Cn1cc(Cl)ccc1=O)N1CCC(c2cc3cc(OC(F)F)ccc3[nH]2)CC1 [Ia-28] | 0.96 |
| O=C(Cn1cc(Cl)ccc1=O)N1CCC(c2cc3cc(-c4ccccn4)ccc3[nH]2)CC1 [Ia-29] | 0.97 |
| N#Cc1ccccc1C(=O)N1CCC(C(=O)Nc2ccn(-c3ccccc3F)n2)CC1 [Ia-34] | 0.59 |
| N#Cc1ccccc1C(=O)N1CCC(C(=O)Nc2cccc(-c3ccccc3F)c2)CC1 [Ia-35] | 0.26 |
| N#Cc1ccccc1C(=O)N1CCC(C(=O)Nc2ccnc(-c3ccccc3F)c2)CC1 [Ia-40] | 0.27 |
| N#Cc1ccccc1C(=O)N1CCC(C(=O)Nc2cccc(-c3ccccn3)c2)CC1 [Ia-41] | 0.31 |
| N#Cc1ccccc1C(=O)N1CCC(C(=O)Nc2ccc(-c3ccccc3)cc2)CC1 [Ia-44] | 0.26 |
| N#Cc1ccccc1C(=O)N1CCC(C(=O)Nc2cccc(Oc3ccccc3)c2)CC1 [Ia-47] | 0.38 |
| N#Cc1ccccc1C(=O)N1CCC(C(=O)Nc2cccc(Oc3ccccc3F)c2)CC1 [Ia-52] | 0.28 |
| N#Cc1ccccc1C(=O)N1CCC(C(=O)Nc2cccc(-c3nccs3)c2)CC1 [Ia-54] | 0.39 |
| CC(C)n1ccc2cc(NC(=O)C3CCN(C(=O)c4ccccc4C#N)CC3)ccc21 [Ia-57] | 0.23 |
| CC(C)c1ccccc1C(=O)N1CCC(C(=O)Nc2ccc(OC(F)F)cc2)CC1 [Ia-62] | 1.77 |

| Structure (SMILES) | IC50 [nM] |
| --- | --- |
| N#Cc1ccccc1C(=O)N1CC[C@H](C(=O)Nc2cccc(-c3ccccc3F)c2)C1 [Ia-63] | 0.33 |
| N#Cc1ccccc1C(=O)N1CC[C@H](C(=O)Nc2ccn(-c3ccccc3F)n2)C1 [Ia-65] | 0.25 |
| N#Cc1ccc(F)cc1C(=O)N1CCC(C(=O)Nc2cccc(-c3ccccc3F)c2)CC1 [Ia-68] | 0.2 |
| N#Cc1ccc(F)cc1C(=O)N1CCC(C(=O)Nc2cccc(-c3ccccn3)c2)CC1 [Ia-70] | 0.18 |
| N#Cc1ccc(F)cc1C(=O)N1CCC(C(=O)Nc2cccc(-c3ncccn3)c2)CC1 [Ia-71] | 0.37 |
| N#Cc1ccccc1C(=O)N1CCC(c2nc(-c3ccc(Cl)c(Cl)c3)c[nH]2)CC1 [Ia-85] | 0.12 |
| N#Cc1ccccc1C(=O)N1CCC(c2nc(-c3cccc(C(F)(F)F)c3)c[nH]2)CC1 [Ia-87] | 0.17 |
| Cc1[nH]c(C2CCN(C(=O)c3ccccc3C#N)CC2)nc1-c1ccccc1 [Ia-88] | 0.35 |
| N#Cc1ccccc1C(=O)N1CCC(c2nc3cc(-c4ccccc4F)ccc3[nH]2)CC1 [Ia-93] | 0.19 |
| N#Cc1ccccc1C(=O)N1CCC(c2cc(-c3ccc(Cl)c(Cl)c3)n[nH]2)CC1 [Ia-94] | 0.3 |
| N#Cc1ccccc1CN1CCC(C(=O)Nc2cccc(-c3ccccc3F)c2)CC1 [Ia-99] | 0.64 |
| O=C(Nc1cccc(-c2ccccc2F)c1)C1CCN(C(=O)c2ccccc2C(F)(F)F)CC1 [Ia-104] | 2 |
| O=C(Nc1ccn(-c2ccccc2F)n1)[C@H]1CCN(C(=O)c2ccccc2C(F)(F)F)C1 [Ia-106] | 1.5 |
| CC(C)n1ccc2cc(NC(=O)C3CCN(C(=O)c4ccccc4C(F)(F)F)CC3)ccc21 [Ia-108] | 0.48 |
| O=C(Nc1cccc(-c2ccccc2F)c1)C1CCN(C(=O)c2cc(Cl)ccn2)CC1 [Ia-113] | 4.28 |
| CC(C)n1cccc1C(=O)N1CCC(C(=O)Nc2cccc(-c3ccccc3F)c2)CC1 [Ia-116] | 1.43 |
